Experimental data: the supplement of paper PMC10307832

Columns and labels:
Experiment in all cases: relative viability (nuclei count vs DMSO), 5 days (fraction); higher = more cells survive
Bosutinib + Navitoclax = compound: COc1cc(Nc2c(C#N)cnc3cc(OCCCN4CCN(C)CC4)c(OC)cc23)c(Cl)cc1Cl [Bosutinib] + CC1(C)CCC(c2ccc(Cl)cc2)=C(CN2CCN(c3ccc(C(=O)NS(=O)(=O)c4ccc(N[C@H](CCN5CCOCC5)CSc5ccccc5)c(S(=O)(=O)C(F)(F)F)c4)cc3)CC2)C1 [Navitoclax] (partner 0.5 µM)
Summary of the method: (§1)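 Each reported value is a median over duplicate plates. It expresses relative viability: treated-well nuclei count divided by vehicle-well nuclei count. Lung cancer cell lines in 1536-well plates were dosed by pin tool a day after seeding, alone with one drug or with a fixed anchor-drug dose plus five library-drug doses (not always all listed) in √10 steps, and nuclei were counted after 5 days.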

Bosutinib + Foretinib = compound: COc1cc(Nc2c(C#N)cnc3cc(OCCCN4CCN(C)CC4)c(OC)cc23)c(Cl)cc1Cl [Bosutinib] + COc1cc2c(Oc3ccc(NC(=O)C4(C(=O)Nc5ccc(F)cc5)CC4)cc3F)ccnc2cc1OCCCN1CCOCC1 [Foretinib] (partner 0.25 µM)
Summary of the method: as §1

Bosutinib + Dasatinib = compound: COc1cc(Nc2c(C#N)cnc3cc(OCCCN4CCN(C)CC4)c(OC)cc23)c(Cl)cc1Cl [Bosutinib] + Cc1nc(Nc2ncc(C(=O)Nc3c(C)cccc3Cl)s2)cc(N2CCN(CCO)CC2)n1 [Dasatinib] (partner 0.075 µM)
Summary of the method: as §1

Bosutinib + Decitabine = compound: COc1cc(Nc2c(C#N)cnc3cc(OCCCN4CCN(C)CC4)c(OC)cc23)c(Cl)cc1Cl [Bosutinib] + Nc1ncn([C@H]2C[C@H](O)[C@@H](CO)O2)c(=O)n1 [Decitabine] (partner 2 µM)
Summary of the method: as §1

Bosutinib + Olaparib = compound: COc1cc(Nc2c(C#N)cnc3cc(OCCCN4CCN(C)CC4)c(OC)cc23)c(Cl)cc1Cl [Bosutinib] + O=C(c1cc(Cc2n[nH]c(=O)c3ccccc23)ccc1F)N1CCN(C(=O)C2CC2)CC1 [Olaparib] (partner 8 µM)
Summary of the method: as §1

Cell Line	relative viability (Bosutinib + Navitoclax; first compound 0.01 µM)	relative viability (Bosutinib + Navitoclax; first compound 0.03162 µM)	relative viability (Bosutinib + Navitoclax; first compound 0.1 µM)	relative viability (Bosutinib + Navitoclax; first compound 1 µM)	relative viability (Bosutinib + Foretinib; first compound 0.01 µM)	relative viability (Bosutinib + Foretinib; first compound 0.03162 µM)	relative viability (Bosutinib + Foretinib; first compound 0.1 µM)	relative viability (Bosutinib + Foretinib; first compound 1 µM)	relative viability (Bosutinib + Dasatinib; first compound 0.01 µM)	relative viability (Bosutinib + Dasatinib; first compound 0.03162 µM)	relative viability (Bosutinib + Dasatinib; first compound 0.1 µM)	relative viability (Bosutinib + Dasatinib; first compound 1 µM)	relative viability (Bosutinib + Decitabine; first compound 0.01 µM)	relative viability (Bosutinib + Decitabine; first compound 0.03162 µM)	relative viability (Bosutinib + Decitabine; first compound 0.1 µM)	relative viability (Bosutinib + Decitabine; first compound 1 µM)	relative viability (Bosutinib + Olaparib; first compound 0.01 µM)	relative viability (Bosutinib + Olaparib; first compound 0.03162 µM)	relative viability (Bosutinib + Olaparib; first compound 0.1 µM)	relative viability (Bosutinib + Olaparib; first compound 1 µM)
NCI-H838	1.14	1.14	1.07	0.637	1.08	1.02	0.989	0.598	0.325	0.302	0.334	0.332	0.467	0.507	0.422	0.411	0.84	0.752	0.684	0.406
NCI-H3122	0.99	0.972	1.01	1.03	1.04	0.979	0.926	0.993	0.894	0.716	0.768	0.781	0.43	0.462	0.388	0.538	0.678	0.653	0.658	0.559
SK-MES-1	1.21	0.97	1.1	1.3	0.966	0.955	0.97	0.747	0.372	0.412	0.393	0.392	0.412	0.482	0.428	0.314	0.671	0.896	0.798	0.458
NCI-H1944	1.06	1.08	1.04	0.956	0.997	0.814	0.889	0.574	0.216	0.2	0.209	0.208	0.477	0.49	0.472	0.393	0.411	0.384	0.417	0.433
LK-2	0.955	0.943	0.838	0.74	1.1	1.49	1.19	0.914	0.288	0.287	0.264	0.296	0.278	0.363	0.313	0.359	0.538	0.962	0.807	0.707
PC-3 [JPC-3]	0.856	0.797	0.807	0.768	1	0.993	1.05	0.759	1.04	0.931	0.996	0.834	0.883	0.798	0.826	0.596	1.08	1.09	1.06	0.663
COR-L23	1.17	1.06	0.959	1.06	1.04	0.938	0.971	0.967	0.551	0.537	0.501	0.619	0.432	0.421	0.414	0.454	0.341	0.353	0.348	0.309
NCI-H1355	0.996	0.925	0.96	0.814	0.956	0.973	1.01	0.917	0.746	0.673	0.731	0.709	0.304	0.366	0.352	0.368	0.715	0.733	0.784	0.633
NCI-H460	1.09	1.11	1.02	0.683	1.01	1.03	1	0.855	0.548	0.491	0.51	0.537	0.5	0.475	0.539	0.419	0.388	0.407	0.392	0.414
NCI-H1993	0.871	0.968	0.957	0.742	0.819	0.672	0.778	0.564	0.492	0.63	0.589	0.622	0.599	0.655	0.655	0.568	0.988	0.996	1.04	1.01
ChaGo-K-1	0.602	1.33	1.31	1.56	1	0.866	0.981	0.931	0.662	0.56	0.637	0.6	0.496	0.536	0.511	0.518	0.432	0.458	0.401	0.435
HCC-15	0.707	0.715	0.741	0.689	1.07	1.05	1.04	0.874	0.651	0.662	0.678	0.674	0.653	0.659	0.659	0.609	0.652	0.699	0.695	0.661
NCI-H23	0.904	0.742	0.869	0.764	0.939	1.03	0.979	0.723	0.927	0.937	0.679	0.76	0.35	0.305	0.321	0.287	0.326	0.328	0.348	0.278
NCI-H1395	1.45	1.01	1.34	1.12	0.947	0.921	0.996	0.947	0.414	0.429	0.405	0.436	0.687	0.756	0.688	0.735	0.456	0.511	0.468	0.487
NCI-H1666	1	1.01	0.889	0.892	1.04	0.936	0.976	0.921	0.75	0.834	0.814	0.808	0.63	0.868	0.72	0.802	0.713	0.701	0.756	0.794
NCI-H2405	0.943	0.812	0.892	0.477	1.03	1.07	1.09	0.832	0.259	0.204	0.215	0.238	0.749	0.775	0.757	0.57	0.978	0.887	0.902	0.691
NCI-H2009	1.22	1.2	1.21	1.08	1.22	1.24	1.2	0.857	0.41	0.362	0.416	0.344	0.365	0.468	0.345	0.36	0.708	0.709	0.696	0.575
HCC-78	0.798	0.737	0.752	0.661	0.553	0.506	0.571	0.52	0.356	0.478	0.46	0.373	0.768	0.698	0.761	0.676	0.722	0.937	0.888	0.687

Cell Line	relative viability (Bosutinib + Navitoclax; first compound 0.01 µM)	relative viability (Bosutinib + Navitoclax; first compound 0.03162 µM)	relative viability (Bosutinib + Navitoclax; first compound 0.1 µM)	relative viability (Bosutinib + Navitoclax; first compound 1 µM)	relative viability (Bosutinib + Foretinib; first compound 0.01 µM)	relative viability (Bosutinib + Foretinib; first compound 0.03162 µM)	relative viability (Bosutinib + Foretinib; first compound 0.1 µM)	relative viability (Bosutinib + Foretinib; first compound 1 µM)	relative viability (Bosutinib + Dasatinib; first compound 0.01 µM)	relative viability (Bosutinib + Dasatinib; first compound 0.03162 µM)	relative viability (Bosutinib + Dasatinib; first compound 0.1 µM)	relative viability (Bosutinib + Dasatinib; first compound 1 µM)	relative viability (Bosutinib + Decitabine; first compound 0.01 µM)	relative viability (Bosutinib + Decitabine; first compound 0.03162 µM)	relative viability (Bosutinib + Decitabine; first compound 0.1 µM)	relative viability (Bosutinib + Decitabine; first compound 1 µM)	relative viability (Bosutinib + Olaparib; first compound 0.01 µM)	relative viability (Bosutinib + Olaparib; first compound 0.03162 µM)	relative viability (Bosutinib + Olaparib; first compound 0.1 µM)	relative viability (Bosutinib + Olaparib; first compound 1 µM)
NCI-H2170	0.527	0.67	0.702	0.468	0.959	1	1.01	0.962	0.559	0.583	0.556	0.608	0.429	0.465	0.463	0.457	0.529	0.571	0.539	0.499
NCI-H1793	0.466	0.479	0.456	0.263	0.61	0.664	0.58	0.473	0.465	0.392	0.391	0.347	0.505	0.505	0.436	0.436	0.815	0.804	0.755	0.539
ABC-1	–	–	–	–	0.902	1.17	1.21	0.895	0.548	0.605	0.65	0.488	1.21	1.22	0.997	0.807	0.531	0.964	0.743	0.46
NCI-H1703	0.985	1.06	0.922	0.43	0.371	0.345	0.334	0.246	–	–	–	–	–	–	–	–	0.371	0.471	0.311	0.26
NCI-H661	–	–	–	–	1.07	0.995	0.968	0.596	0.947	0.883	0.884	0.814	0.57	0.537	0.521	0.426	0.696	0.736	0.743	0.649
LCLC-103H	–	–	–	–	0.844	0.674	0.804	0.878	0.513	0.502	0.567	0.449	0.744	0.792	0.723	0.69	0.734	0.774	0.741	0.782
NCI-H2342	–	–	–	–	0.903	0.994	0.999	1.05	0.289	0.305	0.317	0.344	0.691	0.744	0.726	0.855	0.419	0.379	0.464	0.432
SW 900	–	–	–	–	0.806	–	1.04	0.721	0.774	–	0.682	0.749	0.408	0.438	0.427	0.424	0.824	0.769	0.766	0.538
NCI-H522	–	–	–	–	–	–	–	–	0.89	0.691	0.794	0.979	0.572	0.671	0.698	0.658	0.616	0.645	0.735	0.619
CAL-12T	1.23	1.16	1.09	1.12	1.11	1.09	1.11	0.834	0.383	0.426	0.417	0.467	–	–	–	–	0.704	0.665	0.64	0.766
NCI-H650	–	–	–	–	1.05	1	1.09	1.04	0.47	0.502	0.488	0.552	0.327	0.295	0.29	0.419	0.407	0.357	0.424	0.424
NCI-H2228	0.84	–	1.03	0.732	0.762	0.931	0.887	0.744	0.494	0.474	0.56	0.62	–	–	–	–	0.654	0.671	0.468	0.735
NCI-H1792	0.68	0.682	0.67	0.619	–	–	–	–	0.805	0.796	0.875	0.781	0.611	0.561	0.623	0.417	0.525	0.312	0.548	0.273
HCC-44	1.03	0.926	0.969	0.849	–	–	–	–	–	–	–	–	0.97	0.995	0.971	0.987	0.981	0.923	0.978	1.04
IA-LM	0.779	0.816	0.842	0.764	1.1	1.18	1.14	0.982	–	–	–	–	–	–	–	–	0.964	0.927	0.858	0.77
NCI-H358	–	–	–	–	0.896	0.705	0.648	0.494	0.2	0.201	0.206	0.366	0.211	0.213	0.209	0.218	0.566	0.579	0.572	0.366
NCI-H1563	–	–	–	–	0.917	0.953	0.846	0.676	0.444	0.47	0.446	0.472	–	–	–	–	–	–	–	–
